The values below come from patent publication US20170281624A1, “COMBINATION THERAPIES OF ALK INHIBITORS” (Novartis AG, priority 2014, published 2017).

For one data set, the system named is ALK-positive NSCLC. Kind of data set: Clinical study of LDK378 in ALK-positive NSCLC patients, 750 mg dose group. Format: in vivo, human.
In data set [1] the test system is PD-L1 (CD274) in H3122 cells. Kind of data set: PD-L1 (CD274) expression by TaqMan real time PCR and flow cytometry. The format is cell-based, human. The protocol: This example evaluates the effects of selected therapeutic agent LDK378 on PD-L1 (CD274) modulation. LDK378 was examined by real time PCR and flow cytometry on PD-L1 levels.
TaqMan RT PCR assays were developed to detect changes of expression levels of PD-L1 (CD274) in cell lines and xenograft tumors. mRNA was isolated from frozen cell pellets or tumor fragments using the Qiagen RNeasy Mini kit. Isolated RNA was frozen at −80° C. RNA quality was checked and RNA was quantified using a 2100 Agilent Bioanalyzer following the protocol for the Agilent RNA 6000 Nano Kit. cDNA was prepared using a High Capacity RNA-to cDNA Kit (Applied Biosystems).
Real-time PCR reactions were carried out in 20 μl total volume, including 10 μl of Universal PCR master mix (Applied Biosystems), 1 μl of human PD-L1 (CD274) probe/primer set (Applied Biosystems), and 8 μl of cDNA. Each sample was run in triplicate. The amount of cDNA produced from 25-50 ng of RNA in the reverse transcription reaction was used in each PCR reaction. Due to difference in mRNA levels between PD-L1 and GAPDH, the two real-time PCR reactions were done in separate tubes using same amount of cDNA. The real-time PCR reaction was run on the C1000 Thermal Cycle (BioRad) with the cycle program as follows: a 10 minute incubation at 95° C. followed by 40 cycles of 95° C. for 15 seconds and 60° C. for 1 minute. […]

The conditions of data set [2]: ceritinib trials; cited from earlier work.

Take `Cc1cc(Nc2ncc(Cl)c(Nc3ccccc3S(=O)(=O)C(C)C)n2)c(OC(C)C)cc1C1CCNCC1` [LDK378, 5-chloro-N^2-(2-isopropoxy-5-methyl-4-(piperidin-4-yl)phenyl)-N^4-[2-(propane-2-sulfonyl)-phenyl]-pyrimidine-2,4-diamine]: the “median progression-free survival (PFS)” value with ALK-positive NSCLC (750 mg, 53.3% of the patients censored) is given as 8.21 months. For the same molecule, the “median time to response” value in the data set with ALK-positive NSCLC (144 patients with confirmed CR or PR, 750 mg) is 6.1 weeks. In addition, the “overall response rate (ORR)” value with ALK-positive NSCLC (246 ALK-positive NSCLC patients, 750 mg dose group (RD)) worked out at 58.5%. In addition, the figures for the ORR with ALK-positive NSCLC (ALK inhibitor-naïve patients) and in the data set with ALK-positive NSCLC (patients treated with a prior ALK inhibitor) were 66.3% and 54.6%, respectively. Also, in the data set on ALK-positive NSCLC (among the 144 patients with confirmed CR or PR, 750 mg), the “patients who achieved a response within 12 weeks” value is listed as 86.1%. Further, in the data set with ALK-positive NSCLC (investigator assessment, 750 mg), the “estimated median duration of response (DOR)” value is 9.69 months. In addition, the “PD-L1 mRNA” value in data set [1] (H3122 (NSCLC with ALK translocation) in vitro, FIG. 1) is given as “Inhibition”. Further, the “PD-L1 levels on tumor cells” value in data set [1] (real time PCR and flow cytometry) is listed as “Significant inhibition”. Further, the immune-related adverse events entry in data set [2] is reported as “have not been frequently reported”.
